Measured values reported in patent US9188580B2, “Gene reporter assay, kit, and cells for determining the presence and/or the level of a molecule that activates signal transduction activity of a cell surface protein” (LE CENTRE NATIONALE DE LA RECHERCHE SCIENTIFIQUE, priority 2002, dated 2015).

Experiments:
PIL5 cells [1] = assay: Luciferase gene reporter assay for Type I interferon: IFN sensitivity of PIL5 cells treated with anti-mitotic agent, frozen and thawed; type: cell-based, human
Procedure: • 1. Remove protective cover from the sample preparation micro-plate (Plate A). • 2. Add 100 μl of the diluent (RPMI 1640 medium without serum) to wells A1 through A6 and B1 through B6 of the sample preparation plate (Plate A). • 3. Add 100 μl of the interferon (IFN) reference preparation to wells A1 and B1 of Plate A containing 100 μl of diluent. • 4. Carry out serial two-fold dilutions of the IFN reference preparation in Plate A from wells A1 and B1 through wells A6 and B6 using a multi-channel micro-pipette. Sample preparation • 1. Add 100 μl of the diluent to the wells of the sample preparation plate (Plate A) where required. • 2. Dilute samples to be tested if the estimated IFN titer of the samples is greater than 100 IU/ml. • 3. Dilute samples appropriately in the sample preparation micro-plate (Plate A) Assay Procedure • 1. Rapidly thaw the 96-well PIL5 assay micro-plate (Plate B) on a flat surface with the cover uppermost. A water-bath set at 37° C. can be used for convenience. • 2. Dry protective cover with a paper hand towel, taking care to maintain the label uppermost. • 3. Carefully remove protective cover from the PIL5 assay micro-plate (Plate B) while maintaining the cover uppermost. • 4. Add 75 μl of each of the serial two-fold dilutions of the reference preparation to wells A1 and B1 through wells A6 and B6 of the PIL5 assay micro-plate (Plate B) using a multi-channel micro-pipette. • 5. Add 75 μl of each undiluted or appropriately diluted sample to the PIL assay micro-plate […]. • 6. Incubate the PIL5 assay micro-plate (Plate B) overnight at 37° C. in an atmosphere of 5% CO2 in air. A CO2 incubator can be used for convenience. • 7. […] Determine the luminescence of the samples using a micro-plate luminometer (LUMICOUNT, Packard). […] Plot standard curve from the mean of the luminescence readings for each dilution of the IFN reference preparation calibrated against the NIH international reference standard for HuIFN-α (G-023-901-527) using Microsoft EXCEL. • 2. […]

PIL5 cells [2] = assay: Prevention of cell replication of PIL5 cells by anti-mitotic and pro-apoptotic agent; type: cell-based, human; conditions: at the doses tested
Procedure: Studies on the effects of a variety of parameters, i.e., concentration of vinblastine, time of treatment with vinblastine, fetal bovine serum (FBS) concentration, glycerol concentration in the presence or absence of DMSO, SMSO concentration, cell density, on interferon sensitivity of frozen cells were conducted to determine optimal conditions. It may not be apparent from the results shown in FIG. 12 why vinblastine instead of 5-FU was chosen as the more preferred anti-mitotic and pro-apoptotic agent for treatment of PIL5 cells prior to freezing.

C[S+](C)[O-] [DMSO, dimethyl sulfoxide]
protection of cells frozen at −20° C. and effect on sensitivity to IFN (PIL5 cells [1]; no special freezing or thawing techniques, FIG. 11): without adversely affecting their sensitivity to IFN

O=c1[nH]cc(F)c(=O)[nH]1 [5-FU, 5-fluorouracil]
preventing cell replication (PIL5 cells [2]): not found to be sufficiently effective | maintaining interferon sensitivity of frozen PIL5 cells (PIL5 cells [1]; treatment prior to freezing, compared with vinblastine, FIG. 12): superior to vinblastine

CC[C@]1(O)C[C@@H]2CN(CCc3c([nH]c4ccccc34)[C@@](C(=O)OC)(c3cc4c(cc3OC)N(C)[C@H]3[C@@](O)(C(=O)OC)[C@H](OC(C)=O)[C@]5(CC)C=CCN6CC[C@]43[C@@H]65)C2)C1 [vinblastine]
IFN sensitivity of PIL5 cells after treatment and freezing (PIL5 cells [1]; 100 μM vinblastine, 1.0 hour at 37° C., one month at −20° C., FIG. 11): retain full IFN sensitivity
